Here are results for 44 compounds from the OPERA property sets (Mansouri et al. 2018).

Usually boiling point stands for the temperature of boiling at a given pressure. By melting point is commonly meant the temperature, or range, at which the solid turns liquid.

Settings in one data set: not given
For `CC(C)C(C)N` (centres undefined), the boiling point is 85.5 °C and the melting point was -50 °C.
The compound `ClCC(CCl)(CCl)CCl` came in with a melting point of 97 °C.
For the compound `CCO[Si](c1ccccc1)(c1ccccc1)c1ccccc1`, the boiling point was 344 °C and the melting point came to 65 °C.
As for `Cc1c(N)c(=O)n(-c2ccccc2)n1C`, the melting point was 109 °C.
As to `COc1ccccc1N1CCN(CCCC(=O)c2ccc(F)cc2)CC1`, the melting point came to 68 °C.
`Oc1ccc2c(c1)Cc1ccccc1-2` had a melting point of 168 °C.
Regarding `CC(=O)Nc1ccccc1C(=O)O`, the melting point came to 186 °C.
The same measure, in the same setting: with `Oc1ccc2c3c1O[C@H]1[C@@H](O)C=C[C@H]4[C@H](C2)NCC[C@@]341` the figure was 273 °C.
The compound `COO` returned a log10 Henry constant (atm·m³/mol) of -5.34.
The compound `c1ccc2c(c1)[nH]c1cnccc12` displayed a melting point of 199 °C.
The same measure, in the same setting: next, `N#Cc1cccc([N+](=O)[O-])c1`: 116 °C; `COc1cccc(CC(=O)O)c1`: 72 °C.
`N#CC1CC1` gave a boiling point of 135 °C.
As to `FSC(F)(F)F`, the boiling point was determined as 148 °C.
For the compound `CC1(c2ccccc2)C(=O)NC(=O)NC1=O`, the melting point was 220 °C.
`ClCCI` yielded a boiling point of 140 °C and a melting point of -15.6 °C.
The compound `CCCCCCCCn1sccc1=O` registered a log10 vapour pressure (mmHg) of -4.43.
As to `CCCCCCCCCCCCCC(CCCCCCCCCCCC)CCCCCCCCCCCC`, the melting point was determined as 13.7 °C.
With `CCCCCCCCCCCC(=O)N(CCO)CCO`, the ready biodegradability entry is “readily biodegradable”.
`O=C(O)C(Cl)(Cl)Cl` showed a boiling point of 196 °C, a log10 Henry constant (atm·m³/mol) of -7.87, a log10 Koc (L/kg) of 0.3 and a log10 vapour pressure (mmHg) of -1.22. Besides, the melting point was 57.5 °C and the ready biodegradability result is “not readily biodegradable”.
Regarding `C#C[C@H](O)CC`, the boiling point was determined as 125 °C.
The same measure, in the same setting: next, `CCCCCCC(=O)OCC(C)C`: 208 °C.
In the case of `CCc1ccccc1O`, the boiling point worked out at 204 °C, the log10 vapour pressure (mmHg) was -0.815 and the melting point turned out to be 18 °C.
Regarding `Cc1cccc(I)c1O`, the melting point came to 15.5 °C.
Take `CCc1ccc(C(=O)NN(C(=O)c2cc(C)cc(C)c2)C(C)(C)C)cc1`: the log10 vapour pressure (mmHg) is -7.65 and the melting point came out at 191 °C.
`C=CC[Si](Cl)(Cl)Cl` came in with a boiling point of 118 °C, a log10 vapour pressure (mmHg) of 1.25 and a melting point of 35 °C.
With `O=C1C(O)=C(Cl)C(=O)c2ccccc21`, the melting point is 216 °C.
In turn, `COc1ccc2c(c1)N(CCCN(C)C)c1ccccc1S2` returned a melting point of 46 °C.
Same read-out and setting: next, `COc1ccccc1N1CCN(CCCNc2cc(=O)n(C)c(=O)n2C)CC1`: 157 °C; `CCOC(=O)C(C(=O)OCC)=C(C(=O)OCC)C(=O)OCC`: 58 °C.
The compound `CCCCS` displayed a boiling point of 98.5 °C, a log10 Henry constant (atm·m³/mol) of -2.34, a log10 vapour pressure (mmHg) of 1.66 and a melting point of -116 °C.
With `Nc1cccc2ccccc12`, the boiling point amounted to 301 °C, the log10 Henry constant (atm·m³/mol) is -6.95, the log10 Koc (L/kg) was found to be 3.51 and the log10 vapour pressure (mmHg) is -2.38. Also, the melting point is 49.2 °C and the ready biodegradability result was “not readily biodegradable”.
As for `CS(=O)(=O)CCCN=C=S`, the melting point is 47.5 °C.
`CCNC1CCCCC1`: the boiling point was 164 °C.
Consider `CC(C)c1cccc(O)c1`, for which the boiling point was 228 °C, the log10 vapour pressure (mmHg) was -1.16 and the melting point is 26 °C.
`Nc1ccc(/N=N/c2ccc(N)cc2)cc1` showed a melting point of 250 °C.
In turn, `Cc1cc(C)nc(NC(=O)NS(=O)(=O)c2ccccc2C(=O)O)n1` came in with a log10 Koc (L/kg) of 1.8.
Take `OCc1ccc(Cl)cc1Cl`: the melting point worked out at 59.5 °C and the ready biodegradability entry is on record as “readily biodegradable”.
Compound `Cc1nnc(-c2ccccc2)c(=O)n1N` showed a log10 Koc (L/kg) of 2.17 and a log10 vapour pressure (mmHg) of -8.19.
In turn, `FC(F)(I)C(F)(F)I` gave a boiling point of 112 °C.
In turn, `C#Cc1ccc(C)cc1` returned a boiling point of 169 °C.
Compound `O=C1CCCCN1` displayed a boiling point of 256 °C, a log10 vapour pressure (mmHg) of -2.36 and a melting point of 39.5 °C.
The compound `CC1CCC(=O)N1C` (centres undefined) registered a boiling point of 217 °C.
`CC1C=CC(=O)O1` (centres undefined): the boiling point came to 209 °C.

The same data set, now with this note: fish.
In the case of `O=C(O)C(Cl)(Cl)Cl`, the log10 BCF is 0.23.
Turning to `Nc1cccc2ccccc12`, the log10 BCF stood at 1.4 and the log10 biotransformation half-life (days) was -0.24.
